In paper PMC6472001, “Phenolic Compounds from Humulus lupulus as Natural Antimicrobial Products: New Weapons in the Fight against Methicillin Resistant Staphylococcus aureus, Leishmania mexicana and Trypanosoma brucei Strains” (Molecules, 2019):

Tests used:
Assay type in all cases: cell-based
[1] = test system: Enterococcus faecalis C159-6; assay: First screening, agar dilution MIC
Protocol: (§1) Clinical bacterial isolates from human samples collected in Lille (France) and some collection strains were used. The first screening step on pathogenic bacteria was carried out with crude hydro-alcoholic extracts of different hop parts (Table 1). The second screening was performed using sub-extracts of cones on Gram-positive bacteria, including methicillin-sensitive Staphylococcus aureus (MSSA) and methicillin-resistant Staphylococcus aureus […] (Table 2). These tests were carried out on Petri dishes, Mueller-Hinton Agar (MHA) (Oxoid, UK) was mixed with the plant extract solution in MeOH at 5% (solvent control: 5% MeOH). Final extract concentrations in Petri dishes ranged from 1250 to 4.9 µg/mL. A multi-headed inoculator allowed spotting bacterial strains at 10^5 CFU/mL in cysteinated Ringer (CR) solution (Merck®, France). Minimal Inhibitory Concentrations (MICs) were visually determined after 24 h of incubation at 37 °C.

[2] = test system: Klebsiella pneumoniae 11017; assay: First screening, agar dilution MIC
Protocol: as §1

[3] = test system: Staphylococcus warneri T12A12; assay: First screening, agar dilution MIC
Protocol: as §1

[4] = test system: Providencia stuartii 11038; assay: First screening, agar dilution MIC
Protocol: as §1

[5] = test system: Klebsiella pneumoniae 11016; assay: First screening, agar dilution MIC
Protocol: as §1

[6] = test system: Streptococcus agalactiae T25-7; assay: First screening, agar dilution MIC
Protocol: as §1

[7] = test system: Salmonella sp. 11033; assay: First screening, agar dilution MIC
Protocol: as §1

[8] = test system: Streptococcus agalactiae T53C2; assay: First screening, agar dilution MIC
Protocol: as §1

[9] = test system: Pseudomonas aeruginosa ATCC 27583; assay: First screening, agar dilution MIC
Protocol: as §1

[10] = test system: Escherichia coli 8157; assay: First screening, agar dilution MIC
Protocol: as §1

[11] = test system: Enterococcus sp. 8153; assay: First screening, agar dilution MIC
Protocol: as §1

[12] = test system: Citrobacter freundii 11042; assay: First screening, agar dilution MIC
Protocol: as §1

[13] = test system: Citrobacter freundii 11041; assay: First screening, agar dilution MIC
Protocol: as §1

[14] = test system: Staphylococcus epidermidis 5001; assay: First screening, agar dilution MIC
Protocol: as §1

[15] = test system: Proteus mirabilis 11060; assay: First screening, agar dilution MIC
Protocol: as §1

[16] = test system: Stenotrophomonas maltophilia; assay: First screening, agar dilution MIC
Protocol: as §1

[17] = test system: Serratia marcescens 11056; assay: First screening, agar dilution MIC
Protocol: as §1

[18] = test system: Pseudomonas aeruginosa 8131; assay: First screening, agar dilution MIC
Protocol: as §1

[19] = test system: Mycobacterium smegmatis 5003; assay: First screening, agar dilution MIC
Protocol: as §1

[20] = test system: Enterobacter cloacae 11050; assay: First screening, agar dilution MIC
Protocol: as §1

[21] = test system: Escherichia coli ATCC 25922; assay: First screening, agar dilution MIC
Protocol: as §1

[22] = test system: Streptococcus dysgalactiae T46C14; assay: First screening, agar dilution MIC
Protocol: as §1

[23] = test system: Serratia marcescens 11057; assay: First screening, agar dilution MIC
Protocol: as §1

[24] = test system: Acinetobacter baumannii 9011; assay: First screening, agar dilution MIC
Protocol: as §1

[25] = test system: Staphylococcus lugdunensis T26A3; assay: First screening, agar dilution MIC
Protocol: as §1

[26] = test system: Staphylococcus aureus 8146; assay: First screening, agar dilution MIC
Protocol: as §1

[27] = test system: Staphylococcus aureus 8147; assay: First screening, agar dilution MIC
Protocol: as §1

[28] = test system: Enterobacter cloacae 11053; assay: First screening, agar dilution MIC
Protocol: as §1

[29] = test system: Enterobacter cloacae 11051; assay: First screening, agar dilution MIC
Protocol: as §1

[30] = test system: Escherichia coli 8138; assay: First screening, agar dilution MIC
Protocol: as §1

[31] = test system: Staphylococcus epidermidis 10282; assay: First screening, agar dilution MIC
Protocol: as §1

[32] = test system: Acinetobacter baumannii 9010; assay: First screening, agar dilution MIC
Protocol: as §1

[33] = test system: Corynebacterium T25-17; assay: First screening, agar dilution MIC
Protocol: as §1

[34] = test system: Staphylococcus aureus T26A4; assay: Second screening, agar dilution MIC
Protocol: as §1

[35] = test system: Staphylococcus saprophyticus 08237; assay: Second screening, agar dilution MIC
Protocol: as §1

[36] = test system: Staphylococcus aureus T6.7; assay: Second screening, agar dilution MIC
Protocol: as §1

[37] = test system: Enterococcus faecalis T26-B7; assay: Second screening, agar dilution MIC
Protocol: as §1

[38] = test system: Streptococcus agalactiae T25.7; assay: Second screening, agar dilution MIC
Protocol: as §1

[39] = test system: Staphylococcus aureus T25.9; assay: Second screening, agar dilution MIC
Protocol: as §1

[40] = test system: Streptococcus agalactiae T40A2; assay: Second screening, agar dilution MIC
Protocol: as §1

[41] = test system: Staphylococcus epidermidis 5001; assay: Second screening, agar dilution MIC; conditions: Table 2
Protocol: as §1

[42] = test system: Staphylococcus aureus T36B1; assay: Second screening, agar dilution MIC
Protocol: as §1

[43] = test system: Streptococcus agalactiae 13225; assay: Second screening, agar dilution MIC
Protocol: as §1

[44] = test system: Enterococcus faecalis T37A4; assay: Second screening, agar dilution MIC
Protocol: as §1

[45] = test system: Staphylococcus aureus T25.3; assay: Second screening, agar dilution MIC
Protocol: as §1

[46] = test system: Staphylococcus aureus T1.1; assay: Second screening, agar dilution MIC
Protocol: as §1

[47] = test system: Staphylococcus aureus T25.10; assay: Second screening, agar dilution MIC
Protocol: as §1

[48] = test system: Staphylococcus aureus T47A12; assay: Second screening, agar dilution MIC
Protocol: as §1

[49] = test system: Streptococcus agalactiae 13226; assay: Second screening, agar dilution MIC
Protocol: as §1

[50] = test system: Staphylococcus pettenkoferi T3.3; assay: Second screening, agar dilution MIC
Protocol: as §1

[51] = test system: Staphylococcus lugdunensis T26A3; assay: Second screening, agar dilution MIC; conditions: Table 2
Protocol: as §1

[52] = test system: Enterococcus faecalis T34-2; assay: Second screening, agar dilution MIC
Protocol: as §1

[53] = test system: Enterococcus faecalis T39-C11; assay: Second screening, agar dilution MIC
Protocol: as §1

[54] = test system: Staphylococcus aureus 8147; assay: Second screening, agar dilution MIC; conditions: Table 2
Protocol: as §1

[55] = test system: Streptococcus agalactiae T38.2; assay: Second screening, agar dilution MIC
Protocol: as §1

[56] = test system: Staphylococcus aureus CIP 224; assay: Second screening, agar dilution MIC
Protocol: as §1

[57] = test system: Staphylococcus aureus T28.1; assay: Second screening, agar dilution MIC
Protocol: as §1

[58] = test system: Corynebacterium T25-17; assay: Second screening, agar dilution MIC; conditions: Table 2
Protocol: as §1

## CC1(C)S[C@@H]2[C@H](NC(=O)[C@H](N)c3ccc(O)cc3)C(=O)N2[C@H]1C(=O)O [AMX, Amoxicillin]
[1]
  Susceptibility to AMX: R (R > 16)
[2]
  Susceptibility to AMX: R (R > 16)
[3]
  Susceptibility to AMX: S (Amoxicillin (AMX) S ≤ 4)
[4]
  Susceptibility to AMX: S (Amoxicillin (AMX) S ≤ 4)
[5]
  Susceptibility to AMX: R (R > 16)
[6]
  Susceptibility to AMX: S (Amoxicillin (AMX) S ≤ 4)
[7]
  Susceptibility to AMX: R (R > 16)
[8]
  Susceptibility to AMX: S (Amoxicillin (AMX) S ≤ 4)
[9]
  Susceptibility to AMX: R (R > 16)
[10]
  Susceptibility to AMX: R (R > 16)
[11]
  Susceptibility to AMX: S (Amoxicillin (AMX) S ≤ 4)
[12]
  Susceptibility to AMX: R (R > 16)
[13]
  Susceptibility to AMX: S (Amoxicillin (AMX) S ≤ 4)
[14]
  Susceptibility to AMX: S (Amoxicillin (AMX) S ≤ 4)
[15]
  Susceptibility to AMX: R (R > 16)
[16]
  Susceptibility to AMX: R (R > 16)
[17]
  Susceptibility to AMX: R (R > 16)
[18]
  Susceptibility to AMX: R (R > 16)
[19]
  Susceptibility to AMX: S (Amoxicillin (AMX) S ≤ 4)
[20]
  Susceptibility to AMX: R (R > 16)
[21]
  Susceptibility to AMX: I
[22]
  Susceptibility to AMX: S (Amoxicillin (AMX) S ≤ 4)
[23]
  Susceptibility to AMX: R (R > 16)
[24]
  Susceptibility to AMX: R (R > 16)
[25]
  Susceptibility to AMX: S (Amoxicillin (AMX) S ≤ 4)
[26]
  Susceptibility to AMX: I
[27]
  Susceptibility to AMX: S (Amoxicillin (AMX) S ≤ 4)
[28]
  Susceptibility to AMX: R (R > 16)
[29]
  Susceptibility to AMX: R (R > 16)
[30]
  Susceptibility to AMX: R (R > 16)
[31]
  Susceptibility to AMX: S (Amoxicillin (AMX) S ≤ 4)
[32]
  Susceptibility to AMX: R (R > 16)
[33]
  Susceptibility to AMX: S (Amoxicillin (AMX) S ≤ 4)
[34]
  Susceptibility to AMX: S (Amoxicillin (AMX) S ≤ 4)
[35]
  Susceptibility to AMX: S (Amoxicillin (AMX) S ≤ 4)
[36]
  Susceptibility to AMX: R (R > 16)
[37]
  Susceptibility to AMX: S (Amoxicillin (AMX) S ≤ 4)
[38]
  Susceptibility to AMX: S (Amoxicillin (AMX) S ≤ 4)
[39]
  Susceptibility to AMX: R (R > 16)
[40]
  Susceptibility to AMX: S (Amoxicillin (AMX) S ≤ 4)
[41]
  Susceptibility to AMX: S (Amoxicillin (AMX) S ≤ 4)
[42]
  Susceptibility to AMX: R (R > 16)
[43]
  Susceptibility to AMX: S (Amoxicillin (AMX) S ≤ 4)
[44]
  Susceptibility to AMX: S (Amoxicillin (AMX) S ≤ 4)
[45]
  Susceptibility to AMX: R (R > 16)
[46]
  Susceptibility to AMX: S (Amoxicillin (AMX) S ≤ 4)
[47]
  Susceptibility to AMX: R (R > 16)
[48]
  Susceptibility to AMX: R (R > 16)
[49]
  Susceptibility to AMX: S (Amoxicillin (AMX) S ≤ 4)
[50]
  Susceptibility to AMX: S (Amoxicillin (AMX) S ≤ 4)
[51]
  Susceptibility to AMX: S (Amoxicillin (AMX) S ≤ 4)
[52]
  Susceptibility to AMX: S (Amoxicillin (AMX) S ≤ 4)
[53]
  Susceptibility to AMX: S (Amoxicillin (AMX) S ≤ 4)
[54]
  Susceptibility to AMX: S (Amoxicillin (AMX) S ≤ 4)
[55]
  Susceptibility to AMX: S (Amoxicillin (AMX) S ≤ 4)
[56]
  Susceptibility to AMX: S (Amoxicillin (AMX) S ≤ 4)
[57]
  Susceptibility to AMX: R (R > 16)
[58]
  Susceptibility to AMX: S (Amoxicillin (AMX) S ≤ 4)
